The subject of one test is phosphotyrosine-JAK2. In words: Inhibition of phosphotyrosine-JAK2 levels in tumor cell lines (Western blotting). As to conditions: for levels of P-JAK2: A549 cells, 10 μM, 4 hours. It is filed as cell-based, human. Here is the method:
(§1) Western blotting. Treated cell samples were lysed in 30 mM HEPES, pH 7.5, 10 mM NaCl, 5 mM MgCl2, 25 mM NaF, 1 mM EGTA, 1% Triton X-100, 10% glycerol, 2 mM sodium orthovanadate, 10 μg/ml aprotinin, 10μ/ml soybean trypsin inhibitor, 25 μg/ml leupeptin, 2 mM PMSF, and 6.4 mg/ml p-nitrophenylphosphate. Phospho-STAT3, phospho-AKT, phospho-Src, and phospho-p42/p44 MAPK antibodies were obtained from Cell Signaling Technologies (Cambridge, Mass., USA). Phospho-JNK and whole STAT3 antibodies were purchased from Santa Cruz Biotechnology (Santa Cruz, Calif., USA); phospho-JAK2 antibody came from Upstate Biotechnology (Lake Placid, N.Y., USA). Membranes were blocked in either 5% milk in phosphate-buffered saline (PBS), pH 7.4, containing 0.1% Tween-20 (PBS-T) or 1% BSA in tris-buffered saline (TBS), pH 7.5, containing 0.1% Tween-20 (TBS-T). Phospho-specific antibodies (excepting P-MAPK and P-JNK) were incubated in 1% BSA in TBS-T while all other antibodies were diluted in 5% milk in PBS-T for either 2 h at room temperature or overnight at 4° C. HRP-conjugated secondary antibodies (Jackson ImmunoResearch, West Grove, Pa., USA) were diluted in 5% milk in either PBS-T or TBS-T at 1:1000 dilution for 1 h at room temperature. Western blots were visualized using enhanced chemiluminescence.
(§2) To this end, A549 cells (a human non-small-cell lung carcinoma line) were treated with either vehicle, cucurbitacin analogs A, B, E, or I, or withacnistin mixture (10 ∥M) for 4 hours and the cell lysates processed for Western blotting with antiphosphotyrosine STAT3 (Y705) antibody or antiphosphotyrosine JAK2 (Y1007, Y1008) antibody as described under Materials and Methods.
(§3) As further support of the specific antiphosphotyrosine STAT3, but not antiphosphotyrosine JAK2, activity of withacnistin, A549 cells, as well as two breast carcinoma cell lines (MDA-MB-435 and MDA-MB-468) that also express constitutively activated JAK2 and STAT3, were treated with the withacnistin mixture at various concentrations, and determined IC50 values of inhibition of STAT3 and JAK2 activation.
Background: A western blot detects proteins with antibodies after separation by electrophoresis.

A further test deals with phosphotyrosine-STAT3. Put plainly: Inhibition of phosphotyrosine-STAT3 levels in tumor cell lines (Western blotting). It is filed as cell-based, human. As for the experimental part:
as §1, §2, §3

A further test concerns A549 tumors. Put plainly: Antitumor activity in nude mouse xenograft model, A549. Type of test: in vivo. Conditions: nude mice. The text has this:
(§4) Antitumor activity in the nude mouse tumor xenograft model. Nude mice (Charles River, Wilmington, Mass., USA) were maintained in accordance with the Institutional Animal Care and Use Committee (IACUC) procedures and guidelines. A549 cells were harvested, resuspended in PBS, and injected subcutaneously (s.c.) into the right and left flank (1×10^7 cells per flank) of 8-week-old female nude mice as reported previously (Blaskovich, M. A. et al. Cancer Res., 2003, 63:1270-1279). When tumors reached about 150 mm^3, animals were randomized (four animals per group; two tumors per animal) and dosed intraperitoneally (i.p.) either with cucurbitacin analogs (0.5 or 1 mg/kg/day, i.p.) in 20% DMSO in water or with an equal volume of vehicle control. The tumor volumes were determined by measuring the length (l) and the width (w) and calculating the volume (V=lw^2/2) as described previously (Blaskovich, M. A. et al. Cancer Res., 2003, 63:1270-1279). Statistical significance between control and treated animals were evaluated by using Student's t-test.
(§5) To determine the ability of the cucurbitacin analogs and withacnistin to inhibit tumor growth in vivo, the antitumor activity of the cucurbitacin analogs and withacnistin against both A549 and v-Src/3T3 tumors in a nude mouse xenograft model was evaluated. When the tumors became palpable (at volumes of approximately 100-150 mm^3), the mice were treated either with vehicle control or 1 mg/kg/day of the cucurbitacins or the withacnistin mixture. Tumor volumes were monitored by caliper measurement as previously described (Blaskovich, M. A. et al. Cancer Res., 2003, 63:1270-1279) and under Materials and Methods.

Another test concerns v-Src/3T3 tumors. Put plainly: Antitumor activity in nude mouse xenograft model, v-Src/3T3. As to conditions: v-Src/3T3 xenograft, nude mice. It is filed as in vivo.
Excerpt: as §4, §5
Withacnistin inhibited 57% of tumor growth while Cuc I, B, and E inhibited 45, 40, and 42% of tumor growth, respectively (FIG. 3 and Table 2).

The mark [1] stands for this setting: 0.5 mg/kg/day i.p., 0.5 mg/kg/day.
Where [2] appears, read: 1 mg/kg/day i.p., Wit = withacnistin mixture.

Where “and” joins values, the source holds several entries; their conditions need not be identical. Equal values may be shown once. Read-outs that look alike come from different tables or passages of the source.

As for “3-ethoxy-2,3-dihydrowithacnistin [EDH-Wit]”, in the test on phosphotyrosine-JAK2 (A549 cells (FIG. 8A)), the P-JAK2 levels entry is on record as “suppressed neither”. Further, the P-STAT3 levels entry in the test on phosphotyrosine-STAT3 (A549 cells (FIG. 8A)) is given as “suppressed neither”.
As to `CC(=O)OC(C)(C)/C=C/C(=O)[C@](C)(O)[C@H]1[C@H](O)C[C@@]2(C)[C@@H]3CC=C4[C@H](C[C@H](O)C(=O)C4(C)C)[C@]3(C)C(=O)C[C@]12C` [Cuc B, cucurbitacin B], the “levels of P-JAK2” value in the test with phosphotyrosine-JAK2 is “inhibited”. The “% Inhibition of tumor growth” value in the test on A549 tumors (setting [1]) is 53.6% and 53.6^b %; in the test on v-Src/3T3 tumors (setting [1]), 40% and 40^a %. Moreover, the “levels of P-STAT3” value in the test on phosphotyrosine-STAT3 was “inhibited”.
As to `CC(=O)OC(C)(C)/C=C/C(=O)[C@](C)(O)[C@H]1[C@H](O)C[C@@]2(C)[C@@H]3CC=C4[C@@H](C=C(O)C(=O)C4(C)C)[C@]3(C)C(=O)C[C@]12C` [Cuc E, cucurbitacin E], in the test with phosphotyrosine-JAK2, the “levels of P-JAK2” value was “inhibited”. For the same compound, the “% Inhibition of tumor growth” value in the test on A549 tumors (setting [2]) turned out to be 48.5%; in the test with v-Src/3T3 tumors (setting [2]), 42%. The “levels of P-STAT3” value in the test with phosphotyrosine-STAT3 (A549 cells, 10 μM, 4 hours) is “inhibited”.

Values taken from US20070191490A1, “Withacnistin compounds for treatment of cancer” (priority 2006, published 2007).
